This assay concerns the target T1, HDM2 (Homo sapiens, UniProt Q00987).
T1 construct: Thioredoxin (N); made in house; host or cells: E. coli strain BL21(DE3)Rosetta
The assay is described as follows: HDM2 FRET assay (inhibition of binding of FITC labeled p53-pocket peptide to HDM2). The note with it: read-out: FRET IC50. In short, it runs like this: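 Displacement of FITC-p53 peptide (3 nM) from His-tagged HDM2 (0.5 nM) is measured by Tb-to-fluorescein FRET in PBS, 0.01% BSA, 0.01% Tween-20. IC50 values derive from 10-point curves.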

The mark [1] stands for this setting: 0.5 nM HDM2 (residues 17 to 125), 3nM peptide, two hour incubation at room temperature.

Where two headings read alike, the source gives them in different places.

T1 sequence (Q00987 17-125): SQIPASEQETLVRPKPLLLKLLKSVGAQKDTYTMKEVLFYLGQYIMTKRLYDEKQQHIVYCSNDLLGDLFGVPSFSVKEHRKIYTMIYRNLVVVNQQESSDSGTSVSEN

Consider `Cc1noc(C2CCCCN2c2nc3nc(-c4noc(=O)[nH]4)nc(N[C@H](C)C4CCC4)c3n2Cc2ccc(C(F)(F)F)cc2)n1` (stereo partly drawn) [Example 9.107, 3-(6-{[(1R)-1-cyclobutylethyl]amino}-8-[2-(3-methyl-1,2,4-oxadiazol-5-yl)piperidin-1-yl]-7-[4-(trifluoromethyl)benzyl]-7H-purin-2-yl)-1,2,4-oxadiazol-5(4H)-one], for which the IC50 (Table 9) stood at 5.18 nM.
As for `C=C(c1ccc(F)cc1)c1nc2nc(-c3noc(=O)[nH]3)nc(N[C@H](C)C3CCC3)c2n1C[C@H]1CC[C@H](C)CC1` [Example 21.30, 3-(6-{[(1R)-1-cyclobutylethyl]amino}-8-[1-(4-fluorophenyl)ethenyl]-7-[(trans-4-methylcyclohexyl)methyl]-7H-purin-2-yl)-1,2,4-oxadiazol-5(4H)-one], the IC50 (Table 21) worked out at 1.84 nM.
Regarding `C[C@@H](Nc1nc(-c2noc(=O)[nH]2)nc2nc(N(C)CC(C)(C)C)n(C[C@H]3CC[C@H](C)CC3)c12)C1CCC1` [Example 11.43, 3-(6-{[(1R)-1-cyclobutylethyl]amino}-8-[(2,2-dimethylpropyl)(methyl)amino]-7-[(trans-4-methylcyclohexyl)methyl]-7H-purin-2-yl)-1,2,4-oxadiazol-5(2H)-one], under “Table 11”, the IC50 was 19.4 nM.
As to `C[C@@H]1CN[C@@H](C)CN1c1nc2nc(-c3noc(=O)[nH]3)nc(N[C@H](C)C3CCC3)c2n1C[C@H]1CC[C@H](C)CC1` [Example 17.21, 3-(6-{[(1R)-1-cyclobutylethyl]amino}-8-[(2R,5S)-2,5-dimethylpiperazin-1-yl]-7-[(trans-4-methylcyclohexyl)methyl]-7H-purin-2-yl)-1,2,4-oxadiazol-5(4H)-one], the IC50 (Table 17.2) is 20.1 nM.
With `C[C@@H](Nc1nc(C(=O)O)nc2nc(NC(=O)C3CCCCC3)n(Cc3ccc(C(F)(F)F)cc3)c12)C1CCC1` [Example 9.43, 6-{[(1R)-1-cyclobutylethyl]amino}-8-[(cyclohexylcarbonyl)amino]-7-[4-(trifluoromethyl)benzyl]-7H-purine-2-carboxylic acid], the IC50 (Table 9) came to 343 nM.
On to `C[C@@H](Nc1nc(CO)nc2nc(N3CCOC[C@H]3c3ccccc3)n(Cc3ccc(C(F)(F)F)cc3)c12)C1CCC1` [Example 12.33, (6-{[(1R)-1-cyclobutylethyl]amino}-8-[(3R)-3-phenylmorpholin-4-yl]-7-[4-(trifluoromethyl)benzyl]-7H-purin-2-yl)methanol], for which, under setting [1], the IC50 is 151 nM.
As to `Cc1cccc(-c2nc3nc(C(=O)O)nc(N[C@H](C)C4CCCCC4)c3n2Cc2ccc(C(F)(F)F)cc2)c1` [Example 6.42, 6-{[(1R)-1-cyclohexylethyl]amino}-8-(3-methylphenyl)-7-[4-(trifluoromethyl)benzyl]-7H-purine-2-carboxylic acid], the IC50 (Table 6) stood at 564 nM.
On to `CC(C)C[C@H]1COCCN1c1nc2nc(-c3noc(=O)[nH]3)nc(-c3cccc(Cl)c3)c2n1C[C@H]1CC[C@H](C)CC1` [Example 16.39, 3-{6-(3-chlorophenyl)-7-[(trans-4-methylcyclohexyl)methyl]-8-[(3S)-3-(2-methylpropyl)morpholin-4-yl]-7H-purin-2-yl}-1,2,4-oxadiazol-5(4H)-one], for which the IC50 under setting [1] was determined as 47.5 nM.
Take `Cc1csc(CN(C)c2nc3nc(-c4noc(=O)[nH]4)nc(N[C@H](C)C4CCC4)c3n2C[C@H]2CC[C@H](C)CC2)n1` [Example 11.76, 3-(6-{[(1R)-1-cyclobutylethyl]amino}-7-[(trans-4-methylcyclohexyl)methyl]-8-{methyl[(4-methyl-1,3-thiazol-2-yl)methyl]amino}-7H-purin-2-yl)-1,2,4-oxadiazol-5(2H)-one]: the IC50 (Table 11) came to 8.19 nM.
`C[C@H]1CC[C@H](Cn2c(N3CCOC[C@H]3c3ccccc3)nc3nc(-c4n[nH]c(=O)o4)nc(-c4cncc(Cl)c4)c32)CC1` [Example 16.35, 5-{6-(5-chloropyridin-3-yl)-7-[(trans-4-methylcyclohexyl)methyl]-8-[(3R)-3-phenylmorpholin-4-yl]-7H-purin-2-yl} -1,3,4-oxadiazol-2(3H)-one]: the IC50 under setting [1] worked out at 0.824 nM.
For `CC(C)CC1COCCN1c1nc2nc(-c3noc(=O)[nH]3)nc(N[C@H](C)C3CCC3)c2n1Cc1ccc(C(F)(F)F)cc1` (stereo partly drawn) [Example 9.101, 3-(6-{[(1R)-1-cyclobutylethyl]amino}-8-[3-(2-methylpropyl)morpholin-4-yl]-7-[4-(trifluoromethyl)benzyl]-7H-purin-2-yl)-1,2,4-oxadiazol-5(4H)-one], under “Table 9”, the IC50 was 9.8 nM.
For the compound `C[C@H]1CC[C@H](Cn2c(C(=O)C3CCOCC3)nc3nc(-c4n[nH]c(=O)o4)nc(-c4cccc(Cl)c4)c32)CC1` [Example 23.9, 5-[6-(3-chlorophenyl)-7-[(trans-4-methylcyclohexyl)methyl] -8-(tetrahydro-2H-pyran-4-ylcarbonyl)-7H-purin-2-yl]-1,3,4-oxadiazol-2(3H)-one], the IC50 (Table 23) was determined as 24.6 nM.
Turning to `C[C@@H]1CN(C)C(=O)CN1c1nc2nc(-c3noc(=O)[nH]3)nc(N[C@H](C)C3CCC3)c2n1C[C@H]1CC[C@H](C)CC1` [Example 11.120, (5R)-4-[6-{[(1R)-1-cyclobutylethyl]amino}-7-[(trans-4-methylcyclohexyl)methyl]-2-(5-oxo-4,5-dihydro-1,2,4-oxadiazol-3-yl)-7H-purin-8-yl]-1,5-dimethylpiperazin-2-one], the IC50 (Table 11) was determined as 5.57 nM.
Turning to `C[C@@H]1OCCN(c2nc3nc(-c4n[nH]c(=O)o4)nc(-c4cncc(Cl)c4)c3n2C[C@H]2CC[C@H](C)CC2)[C@@H]1c1ccccc1` [Example 16.130, 5-{6-(5-chloropyridin-3-yl)-7-[(trans-4-methylcyclohexyl)methyl]-8-[(2S,3R)-2-methyl-3-phenylmorpholin-4-yl]-7H-purin-2-yl}-1,3,4-oxadiazol-2(3H)-one], the IC50 under setting [1] came out at 28.9 nM.
On to `CC(=O)N1CCN(c2nc3nc(C(N)=O)nc(N[C@H](C)C4CCC4)c3n2C[C@H]2CC[C@H](C)CC2)[C@H](c2ccccc2)C1` [Example 17.11, 8-[(2R)-4-acetyl-2-phenylpiperazin-1-yl]-6-{[(1R)-1-cyclobutylethyl]amino}-7-[(trans-4-methylcyclohexyl)methyl]-7H-purine-2-carboxamide], for which, where the note is “Table 17.2”, the IC50 is 6.33 nM.
With `C[C@H](Nc1nc2nc(-c3n[nH]c(=O)o3)nc(-c3cccc(Cl)c3)c2n1C[C@H]1CC[C@H](C)CC1)c1cccc(F)c1` [Example 16.55, 5-{6-(3-chlorophenyl)-8-{[(1S)-1-(3-fluorophenyl)ethyl]amino}-7-[(trans-4-methylcyclohexyl)methyl]-7H-purin-2-yl}-1,3,4-oxadiazol-2(3H)-one], the IC50 under setting [1] was 5.04 nM.
Same read-out and setting: the figure for `C[C@H]1CC[C@H](Cn2c(N3CCOC[C@H]3c3ccccc3)nc3nc(-c4noc(=O)[nH]4)nc(-c4cc(Cl)cnc4O)c32)CC1` [Example 16.162, 3-{6-(5-chloro-2-hydroxypyridin-3-yl)-7-[(trans-4-methylcyclohexyl)methyl]-8-[(3R)-3-phenylmorpholin-4-yl]-7H-purin-2-yl}-1,2,4-oxadiazol-5(4H)-one] is 0.847 nM; for `C[C@H]1CC[C@H](Cn2c(N3CCO[C@H]4CCC[C@@H]43)nc3nc(-c4n[nH]c(=O)o4)nc(-c4cccc(Cl)c4)c32)CC1` [Example 16.83, 5-{6-(3-chlorophenyl)-8-[(4aS,7aS)-hexahydrocyclopenta [b][1,4]oxazin-4(4aH)-yl]-7-[(trans-4-methylcyclohexyl)methyl]-7H-purin-2-yl}-1,3,4-oxadiazol-2(3H)-one] it is 186 nM.
Regarding `CC(C)CNC(=O)c1nc2nc(C(=O)O)nc(N[C@H](C)C3CCC3)c2n1Cc1ccc(C(F)(F)F)cc1` [Example 10.16, (R)-6-((1-Cyclobutylethyl)amino)-8-(isobutylcarbamoyl)-7-(4-(trifluoromethyl)benzyl)-7H-purine-2-carboxylic acid], the IC50 (Table 10) turned out to be 37 nM.
As to `CC1CCCCN1c1nc2nc(-c3noc(=O)[nH]3)nc(N[C@H](C)C3CCC3)c2n1Cc1ccc(C(F)(F)F)cc1` (stereo partly drawn) [Example 9.110, 3-(6-{[(1R)-1-cyclobutylethyl]amino}-8-(2-methylpiperidin-1-yl)-7-[4-(trifluoromethyl)benzyl]-7H-purin-2-yl)-1,2,4-oxadiazol-5(4H)-one], the IC50 (Table 9) was 10.3 nM.
For the compound `C[C@@H](Nc1nc(-c2noc(=O)[nH]2)nc2nc(C(O)C3CCOCC3)n(C[C@H]3CC[C@H](C)CC3)c12)C1CCC1` (stereo partly drawn) [Example 22.34, 3-(6-{[(1R)-1-cyclobutylethyl]amino}-8-[hydroxy(tetrahydro-2H-pyran-4-yl)methyl]-7-[(trans-4-methylcyclohexyl)methyl] -7H-purin-2-yl)-1,2,4-oxadiazol-5(4H)-one], the IC50 (Table 22) is 24.6 nM.
As to `Cc1cccc(-c2nc3nc(C(=O)O)nc(N4CCCC4C4CCC4)c3n2Cc2ccc(C(F)(F)F)cc2)c1` (stereo not drawn) [Example 6.92, 6-(2-cyclobutylpyrrolidin-1-yl)-8-(3-methylphenyl)-7-[4-(trifluoromethyl)benzyl]-7H-purine-2-carboxylic acid], the IC50 (Table 6) is 352 nM.
For `CC(Nc1nc2nc(-c3noc(=O)[nH]3)nc(N[C@H](C)C3CCC3)c2n1C[C@H]1CC[C@H](C)CC1)c1cncnc1` (stereo partly drawn) [Example 11.92, 3-(6-{[(1R)-1-cyclobutylethyl]amino}-7-[(trans-4-methylcyclohexyl)methyl]-8-[(1-pyrimidin-5-ylethyl)amino]-7H-purin-2-yl)-1,2,4-oxadiazol-5(2H)-one], the IC50 (Table 11) worked out at 11.7 nM.
In the case of `CC[C@H]1CC[C@H](Cn2c(-c3cc(C(C)C)ccn3)nc3nc(-c4noc(=O)[nH]4)nc(N[C@H](C)C4CCC4)c32)CC1` [Example 18.20, 3-(6-{[(1R)-1-cyclobutylethyl]amino}-7-[(trans-4-ethylcyclohexyl)methyl]-8-[4-(1-methylethyl)pyridin-2-yl]-7H-purin-2-yl)-1,2,4-oxadiazol-5(4H)-one], the IC50 (Table 18) worked out at 15.7 nM.

Usually IC50 stands for the midpoint of a concentration-inhibition curve.

Values taken from patent publication EP2951180B1, “2,6,7,8 SUBSTITUTED PURINES AS HDM2 INHIBITORS” (Merck Sharp & Dohme Corp., priority 2013, dated 2014).
